# Entries after “also recorded” stand apart in the source; their conditions may differ.
# Key:
# [1] = Body weight of mice in the neonatal PCP model
# [2] = tested on: mouse model of schizophrenia; assay: Prepulse inhibition (PPI) of the startle reflex; details: Study I, age 8 weeks
# [3] = tested on: mouse model of schizophrenia; assay: Behavior in the Phenotyper cage; format: in vivo, mice; details: Study II
# [4] = tested on: mouse model of schizophrenia; assay: Open-field test (ambulation/crossing, rearing, grooming)
# [5] = tested on: mouse model of schizophrenia; assay: Elevated Plus Maze test; details: Study I, age 13 weeks
# CB2 receptor = assay: Expression level of CB2 receptor in brain tissue; format: in vivo, mice; details: for mRNA expression of CB2 receptor: PCP-treated vs control mice, 9 days old
# Method: (§1) Expression Level of CB1 and CB2 Receptor in Mice at 9 Days Old (mRNA) or 2 Weeks Old (Protein)
# (§2) Brain tissue of control mice (saline treated) and mice treated with PCP were analyzed in the left and right cortex and brain stem (FIGS. 7A-I; FIG. 8. Results from the cortex and brain stem were reported by the Inventors in 2011 (Anavi-Goffer et al).
# MGL = assay: Expression of MGL in brain tissue; format: in vivo; details: PCP vs control, 2 week old mice
# Source text: Expression of MGL in 2 Week Old Mice
# GAD67 = assay: Expression level of GAD67 in brain tissue; format: in vivo, mice; details: PCP vs control; for GAD67 protein level: 2 weeks old; for GAD67 mRNA level: 9 days old
# Method: Expression Level of GAD67 in Mice at 9 Days Old (mRNA) or 2 Weeks Old (Protein)
# Brain tissue of control mice and mice treated with PCP were analyzed for GAD67, a neurochemical marker for schizophrenia (FIG. 9A-F).
# CB1 receptor = assay: Expression level of CB1 receptor in brain tissue; format: in vivo; details: PCP-treated vs control mice, 9 days old
# Method: as §1, §2
# cannabinoid receptor CB2 [6] = biological target: T1, cannabinoid receptor CB2 (Homo sapiens, UniProt P34972); details: at CB2; cited from earlier work
# cannabinoid receptor CB2 [7] = biological target: T1, cannabinoid receptor CB2; details: cited from earlier work
# [8] = Study III: male mice, PND 17, PCP 5 mg/kg, 1 h later BCP 10 mg/kg or BCP+AM630 10 mg/kg each, DMSO-based vehicle
# T1 sequence (P34972 whole entry): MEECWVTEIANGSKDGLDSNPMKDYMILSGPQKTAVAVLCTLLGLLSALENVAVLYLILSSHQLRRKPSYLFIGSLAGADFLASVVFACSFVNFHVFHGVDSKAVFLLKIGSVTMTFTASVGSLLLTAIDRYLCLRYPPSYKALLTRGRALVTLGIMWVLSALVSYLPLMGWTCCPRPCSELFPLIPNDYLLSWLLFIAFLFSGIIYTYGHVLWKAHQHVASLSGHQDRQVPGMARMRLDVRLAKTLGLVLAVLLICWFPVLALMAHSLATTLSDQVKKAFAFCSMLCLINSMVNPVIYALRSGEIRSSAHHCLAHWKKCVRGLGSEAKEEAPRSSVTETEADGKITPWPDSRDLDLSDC
smiles,measurement,setting,value
"c1ccc(C2(N3CCCCC3)CCCCC2)cc1 [PCP, Phencyclidine, reference compound]",body weight,"[1]; Study I, ethanol-based vehicle, PND 7 / first week of life (FIG. 1B)",induced a significant reduction in body weight
same,body weight,"[1]; Study I: PCP 5 mg/kg PND 3-16, BCP 10 mg/kg 1 h after PCP, ethanol-based vehicle, each day of injection PND 3-17 (FIG. 1A)",significantly reduce the body weight
same,body weight,"[1]; Study I, PND 17 (FIG. 2C)",still significant
same,body weight,"[1]; Study I, PND 35-37, males (FIG. 4A)",no significant difference in male body weight between the groups
same,body weight,"[1]; Study II: PCP 5 mg/kg, days 3, 5, 7, 10, 12, 15 and 17, male and female (FIG. 13A)",significantly reduced body weight
same,body weight,"[1]; Study II, PND 63 (FIG. 14B)",no significant difference in the body weight between vehicle-treated mice and PCP-treated mice
same,"% inhibition (ability to adjust to sound stimulus, PPI)",[2]; females (FIG. 5D),No significant difference
same,"% inhibition (ability to adjust to sound stimulus, PPI)",[2]; males (FIG. 5B),significant reduction in their ability to adjust to sound stimulus
same,frequency of entries to the wheel,"[3]; PND 91, females and males",reduced the frequency of entries to the wheel
same,time spent in the Hidden Zone,"[3]; PND 91, females and males",increased the time spend at the Hidden Zone
same,frequency of entries to the hidden zone,"[3]; PND 91, males (FIG. 20D)",appeared to reduce the frequency of entries to the Hidden Zone in males
same,frequency of entries to the hidden zone,[3]; PND 105,increased the frequency of entries to the Hidden Zone
same,rearing,"[4]; Study I, ethanol-based vehicle, PND 17 (FIG. 2B)",significantly inhibited both ambulation and rearing behaviors
same,ambulation (exploration),"[4]; Study I: PCP 5 mg/kg, BCP 10 mg/kg, ethanol-based vehicle, PND 17 (FIG. 2A)",significantly inhibited both ambulation and rearing behaviors
same,ambulation,"[4]; Study I, PND 17, females",more sensitive to the effect of PCP
same,rearing behavior,"[4]; Study I, PND 17, females",more sensitive to the effect of PCP
same,locomotor activity,"[4]; Study I, PND 17, males",appeared to be less sensitive to the treatment of PCP or PCP+BCP
same,rearing and exploration behaviors,"[4]; Study I, PND 35-37, females (FIGS. 4E, 4F)",no differences in rearing and exploration behaviors were seen between the different groups
same,locomotor activity,"[4]; Study I, PND 35-37, males (FIG. 4C)",significantly increased the locomotor activity compared with vehicle treatment
same,ambulation,"[4]; Study II: PCP 5 mg/kg, PND 16 (FIG. 13B)",significantly inhibited
same,rearing,"[4]; Study II: PCP 5 mg/kg, PND 16 (FIG. 13C)",significantly inhibited
same,ambulation,[4]; [8],significantly inhibited both ambulation and rearing behaviors
same,rearing,[4]; [8],significantly inhibited both ambulation and rearing behaviors
same,time spent in the distal end of the opened arm (anxiety),"[5]; females (FIGS. 6E, 6G)",reduced the time spent in the distal end of the opened arm; also recorded: induced anxiety in female mice
same,time spent in the distal end of the opened arm (anxiety),"[5]; males (FIGS. 6F, 6H)",increased the time spent in the distal end of the opened arm; also recorded: anxiolytic effect in male mice
same,mRNA expression of CB2 receptor,CB2 receptor; brain stem,significant increase
same,mRNA expression of CB2 receptor,CB2 receptor; left cortex,significant increase
same,mRNA expression of CB2 receptor,CB2 receptor; right cortex,no difference between control and PCP-treated mice
same,CB2 receptor expression level,"CB2 receptor; following administration of PCP, different brain areas",selectively down-regulated in different brain areas
same,putative CB2 receptor expression,"CB2 receptor; mice neonatally treated with phencyclidine, right cortex and basal ganglia/diencephalon",up-regulation
same,protein level of MGL,MGL; Western blotting (FIG. 10C),reduction in protein level of MGL
same,mRNA levels of MGL,MGL; left cortex (FIG. 10A),decreased
same,GAD67 protein level,"GAD67; brain stem, Western blotting (FIG. 9C)",non-significant reduction
same,GAD67 protein level,GAD67; left cortex (FIG. 9A),significantly decreased
same,GAD67 protein level,GAD67; right cortex (FIG. 9B),did not reach a significant level
same,GAD67 mRNA level,GAD67; brain stem (FIG. 9F),increased
same,GAD67 mRNA level,GAD67; left cortex (FIG. 9D),no change was found at the mRNA level
same,GAD67 mRNA level,GAD67; right cortex (FIG. 9E),no change was seen in the mRNA level
same,mRNA expression of CB1 receptor,CB1 receptor; brain stem,significant increase
same,mRNA expression of CB1 receptor,CB1 receptor; left or right cortex,No significant increase
"COc1ccc(C(=O)c2c(C)n(CCN3CCOCC3)c3cc(I)ccc23)cc1 [AM630, 6-Iodopravadoline, reference compound]",open-field behaviors compared with PCP-treated mice,"[4]; Study III: PCP+BCP+AM630 group, male mice, PND 17",not significantly different from these of PCP-treated mice
same,ambulation,[4]; [8],reversed the effects of BCP on ambulation and rearing behaviors; also recorded: reversed the effect of BCP on PCP-induced inhibition of ambulation and rearing
same,rearing,[4]; [8],reversed the effects of BCP on ambulation and rearing behaviors; also recorded: reversed the effect of BCP on PCP-induced inhibition of ambulation and rearing
same,Ki,cannabinoid receptor CB2 [6],32.1 nM
same,activity at CB2 receptor,cannabinoid receptor CB2 [7],potent and selective inverse agonist

# — US11612572B2, “Treatment of schizophrenia using beta-caryophyllene and CB2 receptor agonists” (priority 2012, dated 2023)
